Results from the supplement of paper PMC10307832.

Experiments:
Test in all cases: relative viability (nuclei count vs DMSO), 5 days (fraction); higher = more cells survive
[1] = compound: C(C(=O)C(=O)O)Br [Bromopyruvate] + CS(=O)(=O)CCNCc1ccc(-c2ccc3ncnc(Nc4ccc(OCc5cccc(F)c5)c(Cl)c4)c3c2)o1 [Lapatinib] (partner 2 µM)
Summary of the method: (§1)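 Relative viability equals treated-well nuclei counts divided by vehicle-well nuclei counts. Counts came from 4× images of lung cancer cell lines grown in 1536-well plates for 5 days after pin-tool dosing on the day after seeding. Dosing used one drug alone or a fixed anchor-drug dose plus five library-drug doses (not always all listed) in √10 steps, and values are medians of duplicate plates.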

[2] = compound: C(C(=O)C(=O)O)Br [Bromopyruvate] + Cc1nc(Nc2ncc(C(=O)Nc3c(C)cccc3Cl)s2)cc(N2CCN(CCO)CC2)n1 [Dasatinib] (partner 0.075 µM)
Summary of the method: as §1

[3] = compound: CC(O)(CS(=O)(=O)c1ccc(F)cc1)C(=O)Nc1ccc(C#N)c(C(F)(F)F)c1 [Bicalutamide] + O=C(c1cc(Cc2n[nH]c(=O)c3ccccc23)ccc1F)N1CCN(C(=O)C2CC2)CC1 [Olaparib] (partner 8 µM)
Summary of the method: as §1

[4] = compound: CC(O)(CS(=O)(=O)c1ccc(F)cc1)C(=O)Nc1ccc(C#N)c(C(F)(F)F)c1 [Bicalutamide] + C[C@@H](Oc1cc(-c2cnn(C3CCNCC3)c2)cnc1N)c1c(Cl)ccc(F)c1Cl [Crizotinib] (partner 1 µM)
Summary of the method: as §1

Cell Line | relative viability ([1]; first compound 1 µM) | relative viability ([1]; first compound 3.162 µM) | relative viability ([1]; first compound 10 µM) | relative viability ([1]; first compound 31.62 µM) | relative viability ([1]; first compound 100 µM) | relative viability ([2]; first compound 1 µM) | relative viability ([2]; first compound 3.162 µM) | relative viability ([2]; first compound 10 µM) | relative viability ([2]; first compound 31.62 µM) | relative viability ([2]; first compound 100 µM) | relative viability ([3]; first compound 0.08 µM) | relative viability ([3]; first compound 0.253 µM) | relative viability ([3]; first compound 0.8 µM) | relative viability ([3]; first compound 2.53 µM) | relative viability ([4]; first compound 0.08 µM) | relative viability ([4]; first compound 0.253 µM) | relative viability ([4]; first compound 0.8 µM) | relative viability ([4]; first compound 2.53 µM)
HCC-366 | 1.03 | 1.02 | 1.24 | 1.01 | 1.05 | 0.614 | 0.672 | 1.01 | 0.643 | 0.585 | 0.361 | 0.323 | 0.444 | 0.286 | 0.599 | 0.473 | 0.698 | 0.328
HCC-827 | 0.205 | 0.191 | 0.167 | 0.193 | 0.214 | 0.249 | 0.366 | 0.329 | 0.326 | 0.317 | 0.63 | 0.548 | 0.704 | 0.6 | 0.922 | 0.911 | 0.942 | 0.952
HOP-62 | 1.04 | 1.02 | – | 1.02 | 1.02 | 0.643 | 0.68 | 0.791 | 0.609 | 0.709 | 0.736 | 0.38 | 0.388 | 0.349 | 0.807 | 0.936 | 1.33 | 1
IA-LM | 0.772 | 0.86 | 0.527 | 0.816 | 0.617 | – | – | – | – | – | 0.959 | 0.738 | 1.08 | 0.943 | 1.14 | 0.819 | 0.88 | 1.02
LC-2-ad | 0.977 | 0.982 | 0.933 | 0.921 | 0.971 | 0.765 | 0.671 | 0.634 | 0.54 | 0.437 | 0.758 | 0.713 | 0.683 | 0.697 | 0.495 | 0.427 | 0.462 | 0.482
LCLC-97TM1 | – | – | 0.864 | 1.28 | 0.82 | 0.74 | 0.898 | 0.835 | 0.763 | 0.957 | 0.356 | 0.363 | 0.434 | 0.507 | 0.478 | 0.369 | 0.317 | 0.301
LCLC-103H | – | – | – | – | – | 0.479 | 0.494 | 0.413 | 0.447 | 0.54 | 0.775 | 0.785 | 0.835 | 0.75 | 1.06 | 1.04 | 1 | 1.02
LK-2 | 0.936 | 0.88 | 0.871 | 0.967 | 0.826 | 0.284 | 0.328 | 0.322 | 0.336 | 0.317 | 0.629 | 0.524 | 1.12 | 0.621 | 0.252 | 0.209 | 0.2 | 0.225
LOU-NH91 | 0.818 | 0.706 | 0.735 | 0.815 | 0.824 | 0.592 | 0.535 | 0.61 | 0.58 | 0.558 | 0.899 | 0.847 | 0.976 | 0.955 | 0.726 | 0.681 | 0.766 | 0.744
LU99A | 1.05 | 0.898 | 1.12 | 0.992 | 1.09 | 0.515 | 0.568 | 0.575 | 0.552 | 0.534 | 0.268 | 0.225 | 0.259 | 0.248 | 0.65 | 0.451 | 0.602 | 0.362
LXF-289 | 0.967 | 0.879 | 0.935 | 0.914 | 0.959 | 0.278 | 0.214 | 0.262 | 0.27 | 0.183 | 1.04 | 1.08 | 1.18 | 1.01 | 0.815 | 0.79 | 0.797 | 0.807
NCI-H23 | 1.05 | 1.04 | 1.16 | 1.06 | 1.04 | 0.721 | 0.794 | 1.1 | 0.775 | 1.07 | 0.342 | 0.3 | 0.323 | 0.341 | 0.495 | 0.467 | 0.493 | 0.399
NCI-H322M | 0.573 | 0.548 | 0.485 | 0.624 | 0.612 | 0.253 | 0.258 | 0.248 | 0.235 | 0.259 | 0.851 | 0.741 | 0.789 | 0.768 | 1.05 | 0.858 | 1.16 | 0.868
NCI-H441 | – | – | – | – | – | 0.64 | 0.618 | 0.693 | 0.677 | 0.486 | 0.639 | 0.609 | 0.626 | 0.481 | 0.917 | – | 0.598 | 0.61
NCI-H522 | – | – | – | – | – | 0.856 | 0.781 | 0.816 | 0.892 | 1.01 | 0.711 | 0.599 | 0.788 | 0.693 | – | – | – | –
NCI-H1299 | 0.952 | 0.991 | 0.973 | 0.961 | 0.958 | – | – | – | – | – | 0.993 | 0.942 | 0.974 | 0.864 | 0.969 | 0.93 | 0.957 | 0.911
NCI-H1395 | 1.07 | 0.928 | 1.07 | 0.919 | 0.976 | 0.412 | 0.386 | 0.457 | 0.423 | 0.396 | 0.449 | 0.483 | 0.466 | 0.429 | – | – | – | –
NCI-H1563 | 0.88 | 1.1 | 0.902 | 0.888 | 0.938 | 0.487 | 0.47 | 0.563 | 0.402 | 0.426 | – | – | – | – | 0.863 | 0.861 | 0.794 | 0.743
NCI-H1648 | – | – | – | – | – | – | – | – | – | – | – | – | 0.775 | 0.949 | – | – | – | –
NCI-H1703 | 1.14 | 1.35 | 1.39 | 1.15 | 1.22 | – | – | – | – | – | 0.431 | 0.387 | 0.391 | 0.231 | 0.621 | 0.511 | 0.624 | 0.397
NCI-H1793 | 0.593 | 1.11 | 0.674 | 0.842 | 0.59 | 0.385 | 0.402 | 0.415 | 0.407 | 0.386 | 0.799 | – | 1.38 | 0.744 | – | – | – | –
NCI-H2342 | – | – | – | – | – | 0.307 | 0.292 | 0.319 | 0.285 | 0.319 | 0.524 | 0.501 | 0.491 | 0.44 | – | – | – | –
SW 900 | – | – | – | – | – | 0.498 | 0.552 | 0.533 | 0.516 | 0.592 | 0.798 | 0.721 | 1.21 | 0.803 | – | – | – | –
